Data as given in patent publication US9562017B2, “Hydrogen sulfate salt” (Array BioPharma Inc., priority 2005, dated 2017).
Structures can show the parent of a compound that is named as a salt.

Tests used:
BCS classification = format: physicochemical; details: free base
From the text: BCS Class 4 compounds normally have low bioavailability due to both low dissolution rate and permeability, and the limitation of permeability on absorption means that such salts would not usually be expected exert a substantial impact on absorption (See for example: Dressman et al. (2001) Pharm Tech. July: 68).

[1] = Dissolution rate of the crystalline salt; format: physicochemical; details: crystalline salt compared to the free base and other salts
[2] = Plasma levels of Compound 1 in fasted dogs after oral dispersion doses, salt versus free base; format: in vivo, beagle dogs; details: crystalline salt compared to the free base and other salts
Method: Single doses of 150 mg were administered orally to fasted beagle dogs weighing 12-17 kg and about 2 to 6 years old on each of three dosing days. Each dosing day was 1 week apart.
All formulations were prepared extemporaneously just prior to dosing by adding 7.5 mL of the appropriate dispersing solution via a 10 mL disposable syringe, to vials containing 150 mg free base equivalents of the appropriate drug form, capping and vortex mixing for 30 seconds to form a dispersion.
The dispersion was removed from the vial using the disposable syringe and dosed to the animal via a gavage tube positioned into the stomach. The vials were rinsed twice by adding, for each of the two rinses, a separate 15 mL aliquot of water (total rinse volume=30 mL) via a 20 mL disposable syringe, capping, vortex mixing for 5 seconds, removing the wash solution from the vial using the disposable syringe and dosing to the animal via the gavage tube.
Dogs were fed about 400 g of Special Diet Services Laboratory Diet A each day and allowed water ad libitum. Whole blood (2 mL) in lithium heparin tubes were taken from the jugular vein immediately prior to dosing and at 0.5, 1, 2, 3, 4, 5, 6, 8, 12, 18, 24, 36 and 48 hours. The blood was centrifuged at 3000 rpm for 15 minutes and plasma was removed into plain blood tubes and the plasma stored at −20° C. until analysis. […]

Row | BCS Class (BCS classification) | dissolution rate [1] | bioavailability [2] | SMILES
1 | BCS Class 4 | – | – | Cn1cnc2c(F)c(Nc3ccc(Br)cc3Cl)c(C(=O)NOCCO)cc21 [Compound 1, 6-(4-bromo-2-chloro-phenylamino)-7-fluoro-3-methyl-3H-benzoimidazole-5-carboxylic acid (2-hydroxy-ethoxy)-amide]
2 | – | particularly high | particularly high | Cn1cnc2c(F)c(Nc3ccc(Br)cc3Cl)c(C(=O)NOCCO)cc21 [hydrogen sulfate salt, 6-(4-bromo-2-chloro-phenylamino)-7-fluoro-3-methyl-3H-benzoimidazole-5-carboxylic acid (2-hydroxy-ethoxy)-amide hydrogen sulfate]
